T1: SbzB (Streptomyces sp., UniProt P0DY32)
T1 construct: pET28a NdeI/HindIII, His-tagged, E. coli Rosetta2 (DE3), Ni-NTA
T1 sequence (P0DY32 1-532): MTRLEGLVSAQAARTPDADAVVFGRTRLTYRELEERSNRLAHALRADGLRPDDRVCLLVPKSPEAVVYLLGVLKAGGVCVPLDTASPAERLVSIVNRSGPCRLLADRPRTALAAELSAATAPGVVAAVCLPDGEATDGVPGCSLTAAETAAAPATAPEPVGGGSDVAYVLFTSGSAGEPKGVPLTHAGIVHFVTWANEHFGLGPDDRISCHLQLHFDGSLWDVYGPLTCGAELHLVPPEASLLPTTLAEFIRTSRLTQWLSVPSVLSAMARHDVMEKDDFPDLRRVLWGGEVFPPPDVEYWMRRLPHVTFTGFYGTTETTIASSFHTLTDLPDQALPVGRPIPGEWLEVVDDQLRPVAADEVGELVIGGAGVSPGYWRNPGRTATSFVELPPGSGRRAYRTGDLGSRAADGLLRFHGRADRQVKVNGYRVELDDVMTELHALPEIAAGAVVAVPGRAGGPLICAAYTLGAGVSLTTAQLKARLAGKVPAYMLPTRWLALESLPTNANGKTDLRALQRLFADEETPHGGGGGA

B1: SbzM (Streptomyces sp.) (protein)
chain: MSTQQVIAMLTEELHDLDPAERQAKTVELLAVFGRAKAEALQPEERPEAPDTKPGPLLICDWAADLGLDGTTQQLGIEVAPGPTKVTKTADATGHSLASSGHVGADILHVPAGSGFAPHTHPGDHLLFVLAGTGTIAVAGEIVRTRPGQVYMVQGDITHAVGAVTDHMILSVGAPHRRLDSPDRQELTAYAALLGELGEITCRLCDISAAGGEELAAKGCTHSPHRFG
notes: pET28a NdeI/HindIII, His-tagged, E. coli Rosetta2 (DE3), Ni-NTA; tag cleavage not mentioned

Experiments:
SbzB = molecular target: T1, SbzB; test: malachite green adenylation assay with hydroxylamine; chiral HPLC; assay type: biochemical; conditions: 0.5 mM ATP, 10 mM MgCl2, Tris-HCl pH 7.5, 30 °C
[1] = substrate: N[C@@H](CS)C(=O)O; test: LC-MS quantification of substrate consumption; assay type: biochemical, Streptomyces sp.; conditions: 50 mM Tris pH 9.0, 30 °C, TCEP, 6 μM SbzM, 2 min, n = 2

Row | Molecule | malachite green adenylation assay with hydroxylamine; chiral HPLC (SbzB) | Km [1] [µM]
1 | C[C@H](c1ccccc1)[C@H](N)C(=O)O [(2S, 3R)-β-methylphenylalanine] | SbzB indeed selectively adenylated (2S, 3R)-β-methylphenylalanine as the best substrate | –
2 | B1 | – | 530 ± 80
